In assay [1] the test system is phosphorylation of ERK, KRAS G12C in NCI-H358 cells. In words: pERK inhibition assay. The class given is cell-based. As to conditions: Homo sapiens, NCI-H358, 4 h. Put shortly: (§1)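 Phospho-ERK quantified by in-cell ELISA with TMB read-out at OD450 following 4 h compound exposure (final 0.5% DMSO). Cell lines were SW620 (KRAS G12V), AGS (G12D) and NCI-H358 (G12C), grown in RPMI-1640 with 10% FBS. A 4-parameter sigmoidal model gave the IC50.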

Assay [2] has as its system phosphorylation of ERK, KRAS G12D in AGS cells. In words: pERK inhibition assay. The class given is cell-based. As to conditions: Homo sapiens, AGS, 4 h. Put shortly: as §1
Assay [3] deals with phosphorylation of ERK, KRAS G12V in SW620. In words: pERK inhibition assay. The class given is cell-based. As to conditions: Homo sapiens, SW-620, 4 h, SW620 cells. Put shortly:
as §1

The subject of assay [4] is NCI-H358 cells (KRAS G12C). Briefly: Cell viability assay (Cell Counting Kit-8, 3-day). The note with it: Homo sapiens, NCI-H358, 72 h, NCI-H358, 72 hrs incubation. The class given is cell-based, human. An outline of the steps: (§2)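 72-hr compound treatment, 0.5% DMSO final; NCI-H358 seeded 5,000 cells/well, AGS and SW620 2,000 cells/well. Endpoint: CCK-8, 2-hr development, OD450 minus OD650.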

For assay [5], the system named is AGS cells (KRAS G12D). Briefly: Cell viability assay (Cell Counting Kit-8, 3-day). The format is cell-based, human. The note with it: Homo sapiens, 72 h, 72 hrs incubation. Put shortly: as §2
For orientation: Formazan colour is commonly taken as a measure of viable cells.

The test system of assay [6] is SW620 cells (KRAS G12V). Briefly: Cell viability assay (Cell Counting Kit-8, 3-day). The note with it: Homo sapiens, SW-620; SW620, 72 hrs incubation. The class given is cell-based, human. Put shortly: as §2
Assay [7] has as its target KRAS G12C-BRAF complex (Homo sapiens (Human), UniProt P01116+P62937, G12C). In words: KRAS-BRAF with CYPA (500 nM) interaction assay (TR-FRET, Example 136). The class given is biochemical. The note with it: KRAS G12C-BRAF disruption. A general note: TR-FRET usually uses a lanthanide donor and a delayed reading to cut background.

From patent US20240417410A1, “TRICYCLIC COMPOUNDS FOR THE TREATMENT OF CANCER” (Hoffmann-La Roche Inc., priority 2023, published 2024) come the findings set out here.

Sequence of KRAS G12C-BRAF complex (P01116-2 other isoform, or with tags, fused parts or gaps G12C): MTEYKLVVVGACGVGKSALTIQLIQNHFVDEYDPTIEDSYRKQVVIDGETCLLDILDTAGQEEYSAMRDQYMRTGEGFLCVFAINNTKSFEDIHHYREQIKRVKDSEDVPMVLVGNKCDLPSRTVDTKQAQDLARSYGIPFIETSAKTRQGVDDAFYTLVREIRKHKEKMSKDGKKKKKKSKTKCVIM
Sequence of KRAS G12C-BRAF complex (P62937 whole entry): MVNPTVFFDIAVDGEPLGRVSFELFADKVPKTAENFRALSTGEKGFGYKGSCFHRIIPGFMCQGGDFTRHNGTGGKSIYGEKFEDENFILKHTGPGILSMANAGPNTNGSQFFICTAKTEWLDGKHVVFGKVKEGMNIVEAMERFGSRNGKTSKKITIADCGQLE

One may read the IC50 as the concentration at which inhibition is half-maximal. The low end stands for higher potency, the high end for lower potency. With `CO[C@@H](C)c1ncc(N2CCN(C)CC2)cc1-c1c2c3cc(cc4c3n1CCO4)-c1csc(n1)C[C@H](NC(=O)[C@H]1C[C@@H]1C(F)F)C(=O)N1CCC[C@H](N1)C(=O)OCC(C)(C)C2` (atropisomer, axis not shown; (M)) [Example 34, (1S,2S)-2-(difluoromethyl)-N-[(7S,13S)-(20M)-20-[2-[(1S)-1-methoxyethyl]-5-(4-methylpiperazin-1-yl)-3-pyridyl]-17,17-dimethyl-8,14-dioxo-15,24-dioxa-4-thia-9,21,30,31-tetrazahexacyclo[23.3.1.1^2,5.1^9,13.0^19,27.0^21,26]hentriaconta-1 (28),2,5 (31), 19,25 (29),26-hexaen-7-yl]cyclopropanecarboxamide], the IC50 in assay [1] is less than 0.6 nM; in assay [2], 4.6 nM; in assay [3] it was less than 0.6 nM; in assay [4], 4.7 nM; in assay [5], 12.4 nM; in assay [6] it was 1.1 nM. This compound showed an IC50 in assay [7] of 31.8 nM.

On to `CO[C@@H](C)c1ncc(N2CCN(C)CC2)cc1-c1c2c3cc(cc4c3n1CCO4)-c1csc(n1)C[C@H](NC(=O)[C@H]1[C@@H]3COC[C@@H]31)C(=O)N1CCC[C@H](N1)C(=O)OCC(C)(C)C2` (atropisomer, axis not shown; (M)) [Example 35, (1S,5R,6r)-N-[(7S,13S)-(20M)-20-[2-[(1S)-1-methoxyethyl]-5-(4-methylpiperazin-1-yl)-3-pyridyl]-17,17-dimethyl-8,14-dioxo-15,24-dioxa-4-thia-9,21,30,31-tetrazahexacyclo[23.3.1.1^2,5.1^9,13.0^19,27.0^21,26]hentriaconta-1 (28),2,5 (31), 19,25 (29),26-hexaen-7-yl]-3-oxabicyclo[3.1.0]hexane-6-carboxamide], for which the IC50 in assay [1] is 1 nM; in assay [2], 4.7 nM; in assay [3], less than 0.6 nM; in assay [4], 4.3 nM; in assay [5] it was 13 nM; in assay [6], 1 nM. In assay [7], this compound had an IC50 of 14.5 nM.

In the case of `CO[C@@H](C)c1ncc(N2CCOCC2)cc1-c1c2c3cc(cc4c3n1CCC4)-c1csc(n1)C[C@H](NC(=O)[C@@H]1C[C@H]1C1CC1)C(=O)N1CCC[C@H](N1)C(=O)OCC(C)(C)C2` (atropisomer, axis not shown; (M)) [Example 37, (1R,2S)-2-cyclopropyl-N-[(7S,13S)-(20M)-20-[2-[(1S)-1-methoxyethyl]-5-morpholino-3-pyridyl]-17,17-dimethyl-8,14-dioxo-15-oxa-4-thia-9,21,30,31-tetrazahexacyclo[23.3.1.1^2,5.1^9,13.0^19,27.0^21,26]hentriaconta-1 (29),2,5 (31),19,25,27-hexaen-7-yl]cyclopropanecarboxamide], the IC50 in assay [1] was determined as 0.9 nM; in assay [2] it was 9.1 nM; in assay [3], 0.6 nM; in assay [4], 7.8 nM; in assay [5], 28.3 nM; in assay [6] it was 2.1 nM. The midpoint of inhibition in assay [7], the IC50, lay at 20.5 nM.

As to `CO[C@@H](C)c1ncc(N2CCN3CCOC[C@@H]3C2)cc1-c1c2c3cc(cc4c3n1CCC4)-c1csc(n1)C[C@H](NC(=O)[C@H]1[C@@H]3COC[C@@H]31)C(=O)N1CCC[C@H](N1)C(=O)OCC(C)(C)C2` (atropisomer, axis not shown; (M)) [Example 40, (1S,5R,6r)-N-[(7S,13S)-(20M)-20-[5-[(9αS)-3,4,6,7,9,9a-hexahydro-1H-pyrazino[2,1-c][1,4]oxazin-8-yl]-2-[(1S)-1-methoxyethyl]-3-pyridyl]-17,17-dimethyl-8,14-dioxo-15-oxa-4-thia-9,21,30,31-tetrazahexacyclo[23.3.1.1^2,5.1^9,13.0^19,27.0^21,26]hentriaconta-1 (28),2,5 (31),19,25 (29),26-hexaen-7-yl]-3-oxabicyclo[3.1.0]hexane-6-carboxamide], the IC50 worked out at 0.6 nM in assay [1]; 5.6 nM in assay [2]; 0.4 nM in assay [3]; 3 nM in assay [4]; 11.8 nM in assay [5]; 0.8 nM in assay [6]. The compound further came in with an IC50 in assay [7] of 13 nM.

`CO[C@@H](C)c1ncc(N2CCN3CCOC[C@@H]3C2)cc1-c1c2c3cc(cc4c3n1CCC4)-c1csc(n1)C[C@H](NC(=O)[C@H]1C[C@@H]1C(F)F)C(=O)N1CCC[C@H](N1)C(=O)OCC(C)(C)C2` (atropisomer, axis not shown; (M)) [Example 41, (1S,2S)-N-[(7S,13S)-(20M)-20-[5-[(9αS)-3,4,6,7,9,9a-hexahydro-1H-pyrazino[2,1-c][1,4]oxazin-8-yl]-2-[(1S)-1-methoxyethyl]-3-pyridyl]-17,17-dimethyl-8,14-dioxo-15-oxa-4-thia-9,21,30,31-tetrazahexacyclo[23.3.1.1^2,5.1^9,13.0^19,27.0^21,26]hentriaconta-1 (28),2,5 (31),19,25 (29),26-hexaen-7-yl]-2-(difluoromethyl)cyclopropanecarboxamide]: the IC50 in assay [1] came out at 0.4 nM; in assay [2], 4.8 nM; in assay [3], 0.4 nM; in assay [4] it was 3.6 nM; in assay [5] it was 14 nM; in assay [6] it was 0.9 nM. Also, in assay [7], 23.8 nM corresponded to half-maximal inhibition (IC50).

As for `CO[C@@H](C)c1ncc(N2CCN(C)CC2)cc1-c1c2c3cc(cc4c3n1CCC4)-c1csc(n1)C[C@H](NC(=O)[C@@H]1[C@@H]3COC[C@@H]31)C(=O)N1CCC[C@H](N1)C(=O)OCC(C)(C)C2` (atropisomer, axis not shown; (M)) [Example 42, (1R,5S,6s)-N-[(7S,13S)-(20M)-20-[2-[(1S)-1-methoxyethyl]-5-(4-methylpiperazin-1-yl)-3-pyridyl]-17,17-dimethyl-8,14-dioxo-15-oxa-4-thia-9,21,30,31-tetrazahexacyclo[23.3.1.1^2,5.1^9,13.0^19,27.0^21,26]hentriaconta-1 (28),2,5 (31), 19,25 (29),26-hexaen-7-yl]-3-oxabicyclo[3.1.0]hexane-6-carboxamide], the half-inhibitory concentration (IC50) was found to be 0.9 nM in assay [1]; 8.1 nM in assay [2]; 1.4 nM in assay [3]; 5.4 nM in assay [4]; 22.4 nM in assay [5]; 1.3 nM in assay [6]. Half-maximal inhibition in assay [7] (IC50) required 20.5 nM.

For `CO[C@@H](C)c1ncc(N2CCN(C)CC2)cc1-c1c2c3cc(cc4c3n1CCO4)-c1csc(n1)C[C@H](NC(=O)[C@H]1[C@H](C)[C@@H]1C)C(=O)N1CCC[C@H](N1)C(=O)OCC(C)(C)C2` (atropisomer, axis not shown; (M)) [Example 45, (1r,2S,3R)-N-[(7S,13S)-(20M)-20-[2-[(1S)-1-methoxyethyl]-5-(4-methylpiperazin-1-yl)-3-pyridyl]-17,17-dimethyl-8,14-dioxo-15,24-dioxa-4-thia-9,21,30,31-tetrazahexacyclo[23.3.1.1^2,5.1^9,13.0^19,27.0^21,26]hentriaconta-1 (28),2,5 (31),19,25 (29),26-hexaen-7-yl]-2,3-dimethyl-cyclopropanecarboxamide], the IC50 in assay [1] is 0.6 nM; in assay [2], 2.1 nM; in assay [3] it was 0.2 nM; in assay [4], 1.8 nM; in assay [5], 3.6 nM; in assay [6], 0.2 nM. In assay [7], this compound yielded an IC50 of 14.1 nM.

As for `CO[C@@H](C)c1ncc(N2CCN(C)CC2)cc1-c1c2c3cc(cc4c3n1CCC4)-c1csc(n1)C[C@H](NC(=O)[C@H]1C[C@@H]1c1cncnc1)C(=O)N1CCC[C@H](N1)C(=O)OCC(C)(C)C2` (atropisomer, axis not shown; (M)) [Example 47, (1S,2S)-N-[(7S,13S)-(20M)-20-[2-[(1S)-1-methoxyethyl]-5-(4-methylpiperazin-1-yl)-3-pyridyl]-17,17-dimethyl-8,14-dioxo-15-oxa-4-thia-9,21,30,31-tetrazahexacyclo[23.3.1.1^2,5.1^9,13.0^19,27.0^21,26]hentriaconta-1 (28),2,5 (31), 19,25 (29),26-hexaen-7-yl]-2-pyrimidin-5-yl-cyclopropanecarboxamide], the IC50 in assay [1] was 1.2 nM; in assay [2], 4.8 nM; in assay [3], 1.4 nM; in assay [4] it was 2.5 nM; in assay [5], 10.2 nM; in assay [6], 0.9 nM. For the same compound, the IC50 in assay [7] is 21.2 nM.

With `CO[C@@H](C)c1ncc(N2CCN(C)CC2)cc1-c1c2c3cc(cc4c3n1CCC4)-c1csc(n1)C[C@H](NC(=O)[C@H]1[C@@H]3CC(F)(F)C[C@@H]31)C(=O)N1CCC[C@H](N1)C(=O)OCC(C)(C)C2` (atropisomer, axis not shown; (M)) [Example 48, (1S,5R)-3,3-difluoro-N-[(7S,13S)-(20M)-20-[2-[(1S)-1-methoxyethyl]-5-(4-methylpiperazin-1-yl)-3-pyridyl]-17,17-dimethyl-8,14-dioxo-15-oxa-4-thia-9,21,30,31-tetrazahexacyclo[23.3.1.1^2,5.1^9,13.0^19,27.0^21,26]hentriaconta-1 (28),2,5 (31), 19,25 (29),26-hexaen-7-yl]bicyclo[3.1.0]hexane-6-carboxamide], the IC50 in assay [1] came to 1.2 nM; in assay [2], 10.1 nM; in assay [3] it was 1 nM; in assay [4], 9.5 nM; in assay [5], 26.5 nM; in assay [6], 1.7 nM. In assay [7], the IC50 amounted to 4.4 nM.
